According to article PMC8192908 (Scientific Reports, 2021):
Values joined by “and” are separate entries in the source; they are usually repeats but may differ in a detail not shown here. Equal entries are not always repeated.

Key:
[1] = biological target: T1, PDE10A (Homo sapiens, UniProt Q9Y233); assay: ITC binding of PTX to the catalytic domain of PDE10A
T1 construct: Catalytic domain of each protein was cloned between BamHI and XhoI restriction sites in; 6xHis-SUMO (N, cleaved yes); made in house; host or cells: E. coli Rosetta 2 (DE3)
T1 sequence (Q9Y233 718-1035 limits assumed): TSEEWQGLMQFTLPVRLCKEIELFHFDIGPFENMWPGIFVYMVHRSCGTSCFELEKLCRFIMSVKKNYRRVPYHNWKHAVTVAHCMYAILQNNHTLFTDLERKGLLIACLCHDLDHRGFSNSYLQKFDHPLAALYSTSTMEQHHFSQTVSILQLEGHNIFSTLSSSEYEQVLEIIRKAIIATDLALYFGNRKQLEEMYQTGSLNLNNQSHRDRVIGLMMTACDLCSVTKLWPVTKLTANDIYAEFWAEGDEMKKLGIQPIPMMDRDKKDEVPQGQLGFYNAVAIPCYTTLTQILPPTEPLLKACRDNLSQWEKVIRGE
From the text: Supplementary Materials and Methods
Cloning, expression and purification of catalytic domains of PDE4A, […]
The full length human PDE4A (1005 bp), PDE4D (981 bp) and PDE10A (957 bp) cDNAs, cloned in pET28a(+) expression vector, were purchased from Biomatik, Canada.
Catalytic domain of each protein was cloned between BamHI and XhoI restriction sites in 6x-His-SUMO-tagged bacterial expression vector. The catalytic domain constructs of PDE4A, PDE4D and PDE10A were transformed in E. coli Rosetta 2 (DE3) competent cells for expression. After growing the transformed cells at 37 °C, till the OD 600nm reached 0.5-0.7, the culture containing constructs of PDE4A and PDE4D were induced with 0.1 mM IPTG and the cultures were incubated at 15 °C for 16-18 h, whereas those with PDE10A constructs were induced with 0.5 mM at incubated for 35 -40 h followed by cell harvesting. Harvested cells were suspended in lysis buffer (500 mM NaCl, 50 mM Tris - Cl pH 8.0, 10 mM Imidazole, 3 mM β-mercaptoethanol) and lysed by sonication (Qsonica). The lysates were cleared by centrifugation at 20,000g for 1h and supernatant was passed through Ni-NTA affinity column (His-Trap, GE Healthcare). Eluted proteins were subjected to salt exchange with a buffer containing 100 mM NaCl, 50 mM Tris-Cl pH 8.0, 3 mM β-mercaptoethanol. The collected proteins were further purified using ion - exchange chromatography (Q column, Hi-Trap, GE Healthcare) followed by overnight treatment with ULP1 at 4 °C to cleave 6xHis-SUMO tag. The tag was separated from proteins by a subsequent Ni-NTA purification. The proteins were further purified on size exclusion 16/600 200 pg column (GE Healthcare) pre-equilibrated with a buffer (100 mM […]
NaCl, 50 mM Tris pH 8.0, 5% Glycerol, 3 mM β-mercaptoethanol). After purifying with a gel filtration column, purity was determined on 12% SDS -PAGE and all three proteins were more than 95% pure (Supplementary Figure S10). Purified proteins were concentrated to 20mg/ml, flash cooled with liquid nitrogen and stored at -80°C.
Isothermal titration calorimetry (ITC) binding studies
The equilibrium molar dissociation constant (Kd), stoichiometry (N) and […]
of PDE4A, PDE4D and PDE10A were determined at 25°C, using Affinity ITC (TA instruments). Protein and ligand solutions for titration were prepared in the same buffer.
The reference cell was filled with a distilled water and the sample cell was filled with 350 […]
μL of either PDE4A or PDE4D or PDE10A (75-500 µM). […]
sequentially injected in 2 μL per injection (for a total 20 injections), at a regular interval of 120-150s, while stirring at 125 rpm. The ITC generated data were processed using NanoAnalyze software (TA Instruments). The ITC data was deconvoluted with the “independent” curve fitting model using a nonlinear least-squares algorithm. […]

[2] = test system: mouse bone marrow cells; settings: cited from earlier work
[3] = test system: human lymphocytes cells; settings: cited from earlier work

| Compound | change in enthalpy (ΔH) [1] | change in entropy (ΔS) [1] | stoichiometry (N) [1] | Kd ([1]; 25°C, read-out: molar dissociation constant (Kd)) | genotoxic effect on mouse bone marrow cells in vivo [2] | genotoxic effect on human lymphocytes cells in vitro [3] |
| --- | --- | --- | --- | --- | --- | --- |
| CC(=O)CCCCn1c(=O)c2c(ncn2C)n(C)c1=O [PTX, pentoxifylline] | ~ -8.25±0.04 kcal/mol | ~ -7.8 cal/mol.K | ~ 1.03±0.04 | 44 µM and ~44 µM | – | – |
| COc1ccc2cc(/C=C/C(=O)CCCCn3c(=O)c4c(ncn4C)n(C)c3=O)ccc2c1 [PTXm-1] | – | – | – | – | significantly lower genotoxic effect | significantly lower genotoxic effect |
